Test results taken from US8962843B2, “1,3,4-oxadiazole and 1,3,4-thiadiazole beta-lactamase inhibitors” (priority 2012, dated 2015).
Where a name gives a salt, the structure may show the parent alone.

Assays:
[1] = test system: bacterial strains that express the class D cephalosporinase OXA-15; test: Standard BLI potentiation MIC / synergy MIC assays, strains expressing OXA-15; format: cell-based, E. coli; conditions: in combination with a β-lactam; comparator Avibactam (CCC)
How it was run: (§1)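 Broth microdilution in cation-adjusted Mueller Hinton broth per CLSI M07-A9, ~10^5 CFU/mL, 18-20 h at 37 °C with aeration; engineered E. coli carrying β-lactamase plasmids kept on 25 μg/mL tetracycline. β-lactam MIC measured in 2-fold dilutions (128-0.13 μg/mL) with BLI fixed at 4 μg/mL; sMIC titrates BLI against a fixed β-lactam concentration. MIC = lowest concentration without visible turbidity.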

[2] = test system: bacterial strains that express KPC β-lactamases; test: Standard BLI potentiation MIC / synergy MIC assays, strains expressing KPC β-lactamases; format: cell-based; conditions: in combination with a β-lactam; comparator Avibactam
How it was run: as §1

SMILES: O=C1N2C[C@@H](CC[C@H]2c2nnc(CCNC3CCNCC3)o2)N1OS(=O)(=O)O [Compound 770, (2S,5R)-7-oxo-2-(5-(2-(piperidin-4-ylamino)ethyl)-1,3,4-oxadiazol-2-yl)-1,6-diazabicyclo[3.2.1]octan-6-yl hydrogen sulfate]
- activity against bacterial strains that express the class D cephalosporinase OXA-15, compared with Avibactam [1]: more active than Avibactam
- activity and/or spectrum of activity against bacterial strains that express KPC β-lactamases, compared with Avibactam [2]: more active than Avibactam for at least one, bacterial strain that expresses KPC β-lactamase and/or show a better spectrum of activity

SMILES: O=C1N2C[C@@H](CC[C@H]2c2nnc(CCCNC3CCNCC3)o2)N1OS(=O)(=O)O [Compound 771, (2S,5R)-7-oxo-2-(5-(3-(piperidin-4-ylamino)propyl)-1,3,4-oxadiazol-2-yl)-1,6-diazabicyclo[3.2.1]octan-6-yl hydrogen sulfate]
- activity against bacterial strains that express the class D cephalosporinase OXA-15, compared with Avibactam [1]: more active than Avibactam
- activity and/or spectrum of activity against bacterial strains that express KPC β-lactamases, compared with Avibactam [2]: more active than Avibactam for at least one, bacterial strain that expresses KPC β-lactamase and/or show a better spectrum of activity

SMILES: O=C1N2C[C@@H](CC[C@H]2c2nnc(CCCCNC3CCNCC3)o2)N1OS(=O)(=O)O [Compound 772, (2S,5R)-7-oxo-2-(5-(4-(piperidin-4-ylamino)butyl)-1,3,4-oxadiazol-2-yl)-1,6-diazabicyclo[3.2.1]octan-6-yl hydrogen sulfate]
- activity against bacterial strains that express the class D cephalosporinase OXA-15, compared with Avibactam [1]: more active than Avibactam
- activity and/or spectrum of activity against bacterial strains that express KPC β-lactamases, compared with Avibactam [2]: more active than Avibactam for at least one, bacterial strain that expresses KPC β-lactamase and/or show a better spectrum of activity

SMILES: NC1CCN(Cc2nnc([C@@H]3CC[C@@H]4CN3C(=O)N4OS(=O)(=O)O)o2)CC1 [Compound 774, (2S,5R)-2-(5-((4-aminopiperidin-1-yl)methyl)-1,3,4-oxadiazol-2-yl)-7-oxo-1,6-diazabicyclo[3.2.1]octan-6-yl hydrogen sulfate]
- activity against bacterial strains that express the class D cephalosporinase OXA-15, compared with Avibactam [1]: more active than Avibactam
- activity and/or spectrum of activity against bacterial strains that express KPC β-lactamases, compared with Avibactam [2]: more active than Avibactam for at least one, bacterial strain that expresses KPC β-lactamase and/or show a better spectrum of activity

SMILES: O=C1N2C[C@@H](CC[C@H]2c2nnc(CCN3CCNCC3)o2)N1OS(=O)(=O)O [Compound 776, (2S,5R)-7-oxo-2-(5-(2-(piperazin-1-ybethyl)-1,3,4-oxadiazol-2-yl)-1,6-diazabicyclo[3.2.1]octan-6-yl hydrogen sulfate]
- activity against bacterial strains that express the class D cephalosporinase OXA-15, compared with Avibactam [1]: more active than Avibactam
- activity and/or spectrum of activity against bacterial strains that express KPC β-lactamases, compared with Avibactam [2]: more active than Avibactam for at least one, bacterial strain that expresses KPC β-lactamase and/or show a better spectrum of activity

SMILES: O=C1N2C[C@@H](CC[C@H]2c2nnc(CN3CCNCC3)o2)N1OS(=O)(=O)O [Compound 777, (2S,5R)-7-oxo-2-(5-(piperazin-1-ylmethyl)-1,3,4-oxadiazol-2-yl)-1,6-diazabicyclo[3.2.1]octan-6-yl hydrogen sulfate]
- activity against bacterial strains that express the class D cephalosporinase OXA-15, compared with Avibactam [1]: more active than Avibactam
- activity and/or spectrum of activity against bacterial strains that express KPC β-lactamases, compared with Avibactam [2]: more active than Avibactam for at least one, bacterial strain that expresses KPC β-lactamase and/or show a better spectrum of activity

SMILES: O=C1N2C[C@@H](CC[C@H]2c2nnc([C@H]3CNCCN3)o2)N1OS(=O)(=O)O [Compound 779, (2S,5R)-7-oxo-2-(5((R)-piperazin-2-yl)-1,3,4-oxadiazol-2-yl)-1,6-diazabicyclo[3.2.1]octan-6-yl hydrogen sulfate]
- activity against bacterial strains that express the class D cephalosporinase OXA-15, compared with Avibactam [1]: more active than Avibactam
- activity and/or spectrum of activity against bacterial strains that express KPC β-lactamases, compared with Avibactam [2]: more active than Avibactam for at least one, bacterial strain that expresses KPC β-lactamase and/or show a better spectrum of activity

SMILES: C[n+]1ccc(-c2nnc([C@@H]3CC[C@@H]4CN3C(=O)N4OS(=O)(=O)[O-])o2)cc1 [Compound 782, (2S,5R)-2-(5-(1-methylpyridin-1-ium-4-yl)-1,3,4-oxadiazol-2-yl)-7-oxo-1,6-diazabicyclo[3.2.1]octan-6-yl sulfate]
- activity against bacterial strains that express the class D cephalosporinase OXA-15, compared with Avibactam [1]: more active than Avibactam
- activity and/or spectrum of activity against bacterial strains that express KPC β-lactamases, compared with Avibactam [2]: more active than Avibactam for at least one, bacterial strain that expresses KPC β-lactamase and/or show a better spectrum of activity

SMILES: N[C@H]1C[C@H](c2nnc([C@@H]3CC[C@@H]4CN3C(=O)N4OS(=O)(=O)O)s2)C1 [Compound 783, (2S,5R)-2-(5-((1r,3S)-3-aminocyclobutyl)-1,3,4-thiadiazol-2-yl)-7-oxo-1,6-diazabicyclo[3.2.1]octan-6-yl hydrogen sulfate]
- activity against bacterial strains that express the class D cephalosporinase OXA-15, compared with Avibactam [1]: more active than Avibactam
- activity and/or spectrum of activity against bacterial strains that express KPC β-lactamases, compared with Avibactam [2]: more active than Avibactam for at least one, bacterial strain that expresses KPC β-lactamase and/or show a better spectrum of activity

SMILES: N=C(N)N[C@H]1C[C@@H](c2nnc([C@@H]3CC[C@@H]4CN3C(=O)N4OS(=O)(=O)O)s2)C1 [Compound 784, (2S,5R)-2-(5-((1s,3R)-3-guanidinocyclobutyl)-1,3,4-thiadiazol-2-yl)-7-oxo-1,6-diazabicyclo[3.2.1]octan-6-yl hydrogen sulfate]
- activity against bacterial strains that express the class D cephalosporinase OXA-15, compared with Avibactam [1]: more active than Avibactam
- activity and/or spectrum of activity against bacterial strains that express KPC β-lactamases, compared with Avibactam [2]: more active than Avibactam for at least one, bacterial strain that expresses KPC β-lactamase and/or show a better spectrum of activity

SMILES: N=C(N)NCCc1nnc([C@@H]2CC[C@@H]3CN2C(=O)N3OS(=O)(=O)O)s1 [Compound 794, (2S,5R)-2-(5-(2-guanidinoethyl)-1,3,4-thiadiazol-2-yl)-7-oxo-1,6-diazabicyclo[3.2.1]octan-6-yl hydrogen sulfate]
- activity against bacterial strains that express the class D cephalosporinase OXA-15, compared with Avibactam [1]: more active than Avibactam
- activity and/or spectrum of activity against bacterial strains that express KPC β-lactamases, compared with Avibactam [2]: more active than Avibactam for at least one, bacterial strain that expresses KPC β-lactamase and/or show a better spectrum of activity

SMILES: N[C@H]1C[C@@H](c2nnc([C@@H]3CC[C@@H]4CN3C(=O)N4OS(=O)(=O)O)s2)C1 [Compound 795, (2S,5R)-2-(5-((1s,3R)-3-aminocyclobutyl)-1,3,4-thiadiazol-2-yl)-7-oxo-1,6-diazabicyclo[3.2.1]octan-6-yl hydrogen sulfate]
- activity against bacterial strains that express the class D cephalosporinase OXA-15, compared with Avibactam [1]: more active than Avibactam
- activity and/or spectrum of activity against bacterial strains that express KPC β-lactamases, compared with Avibactam [2]: more active than Avibactam for at least one, bacterial strain that expresses KPC β-lactamase and/or show a better spectrum of activity
